Here are results for 24 molecules from patent US9434687B2, “Detection of synthetic cannabinoids” (priority 2011, dated 2016).

Where two headings read alike, the source gives them in different places.

Holding throughout (format): binding, sheep
Experiment [1] deals with IgG fraction of antiserum raised to Immunogen I. Here is the method: (§1) An aqueous solution of each immunogen was formulated with Freund's Complete Adjuvant (FCA) to form an emulsion consisting of 2 mg/ml*immunogen in 50% (v/v) FCA. Three sheep were immunised with this emulsion (1° immunisation), 0.25 ml being intramuscularly injected at each of four sites in the flank of each animal. Subsequent immunizations (boosts) contained 1 mg/ml*immunogen. All boosts were emulsified in 50% (v/v) Freund's Incomplete Adjuvant (FIA) and were administered in the same manner as the 1° immunisation, at monthly intervals. Blood sampling took place 7 to 14 days after each boost. *The general procedure for immunogen administration is outlined above, however, it was necessary to deviate from this protocol in some cases, due to reduced immunogen concentrations (Immunogens II, IV, VII and VIII) and/or amount available (Immunogen VIII). Any deviations from the protocol described are outlined in Table 5 below and highlighted in bold.
(§2) The wells of an enhanced binding 96 well polystyrene microtiter plate were coated with IgG fraction of antiserum raised to Immunogen I or II, diluted in 10 mM Tris, pH8.5 (125 μl/well). The appropriate antibody coating dilution was determined using standard ELISA checkerboard techniques. The plate was incubated overnight at 4° C., washed 4 times over 10 minutes with Tris buffered saline containing Tween 20 (TBST) and tapped dry. Standard solutions (JWH-018 for Immunogens I and II) were applied at 0, 0.625, 1.25, 2.5, 5, 10, 20 and 40 ng/ml and 50 μl of each was added to the appropriate wells. 75 μl of conjugate (appropriate hapten-HRP) diluted in Tris buffer (pH 7.2) containing EDTA, D-mannitol, sucrose, thimerosal and BSA, was added to each of the wells. The appropriate dilution of conjugate was also determined using standard ELISA checkerboard techniques. The plate was incubated at 25° C. for 1 hour. Excess unbound conjugate was removed by washing 6 times over a 10 minute period with TBST. 125 μl of tetramethylbenzidine (TMB) substrate solution was added to each well of the plate that was then incubated for 20 minutes in the dark at room temperature. The reaction was terminated by addition of 125 μl 0.2M H2SO4 to each well. The absorbance was then measured at 450 nm using a microtiter plate reader. The data are inputted to a computer program called ‘KC Junior’. It is a 4 parameter fit curve and allow the calculation of concentrations between the standard runs. This program is used to calculate the IC50s by dividing the 0 ng/ml OD value by 2 and obtaining the concentration value from the curve for this OD.
In a similar manner to that described above, the wells of a 96-well microtiter plate were coated with the IgG fraction of the antiserum raised to Immunogens I or II. Standard solutions (JWH-018 for Immunogen I and II) were applied at 0, 0.625, 1.25, 2.5, 5, 10, 20 and 40 ng/ml and conjugate was employed as detection reagent.
(§3) The data set out in Tables 7-10 are generated using antibodies raised against the indicated Immunogens in a competitive binding assay with the indicated tracers, using the indicated standards
(§4) In order to determine the specificity of the competitive ELISAs, standard solutions of a range of structurally similar synthetic cannabinoids and their metabolites were prepared in TBST.
(§5) Using the calibration curves generated and employing a single level of cross reactants, these were used to determine the cross-reactivity of each immunoassay with these substances. These are the standards used for the IC50 and cross-reactivity data generation: […]

Experiment [2] relates to IgG fraction of antiserum raised to Immunogen IV. As for the experimental part: as §1, §2
(§6) In a similar manner to that described above, the wells of a 96-well microtiter plate were coated with the IgG fraction of the antiserum raised to Immunogens IV, VII or VIII. Standard solutions (JWH-018 for Immunogens IV and VIII, JWH-015 for Immunogen VII) were prepared in TBST at 0, 1.25, 2.5, 5, 10, 20, 40 and 80 ng/ml and conjugate was employed as detection reagent.
as §3, §4, §5

In experiment [3] the test system is IgG fraction of antiserum raised to Immunogen VIII. As for the experimental part:
as §1, §2, §6, §3, §4, §5

Experiment [4] deals with IgG fraction of antiserum raised to Immunogen VII. Here is the method: as §1, §2, §6, §3, §4, §5
Setting [5] is: Antibody to Immunogen I, cross-reactants at 100 ng/ml, 1000 ng/ml, standard JWH-018.
Setting [6] is: Antibody to Immunogen IV, cross-reactants at 100 ng/ml, 1000 ng/ml, standard JWH-018.
The mark [7] stands for this setting: Antibody to Immunogen VIII, cross-reactants at 100 ng/ml, 1000 ng/ml, standard JWH-018.
Where [8] appears, read: Antibody to Immunogen VII, cross-reactants at 100 ng/ml, 1000 ng/ml, standard JWH-015.

Turning to `CCCCCn1c(C)c(C(=O)c2ccc(OC)c3ccccc23)c2ccccc21` [JWH-098], the “% B/B0” value in experiment [1] (setting [5]) is given as 77.58%; in experiment [2] (setting [6]), 44.03%; in experiment [3] (setting [7]), 59.80%; in experiment [4] (setting [8]), 82.85%.
Take `CCCCCn1cc(C(=O)c2c(OC)ccc3ccccc23)c2ccccc21` [JWH-081 2-methoxynaphthyl isomer]: the “% B/B0” value in experiment [1] (setting [5]) came out at 69.58%; in experiment [2] (setting [6]), 27.67%; in experiment [3] (setting [7]), 58.20%; in experiment [4] (setting [8]), 83.43%.
On to `CCCCCn1cc(C(=O)Cc2cccc(OC)c2)c2ccccc21` [JWH-302], for which the “% B/B0” value is on record as 84.66% in experiment [1] (setting [5]), 45.67% in experiment [2] (setting [6]), 7.97% in experiment [3] (setting [7]) and 104.92% in experiment [4] (setting [8]).
`COc1ccc(C(=O)c2c(C)n(CCN3CCOCC3)c3cc(I)ccc23)cc1` [AM-630, 6-Iodopravadoline]: the “% B/B0” value in experiment [1] (setting [5]) turned out to be 91.12%; in experiment [2] (setting [6]) it was 90.17%; in experiment [3] (setting [7]), 89.88%; in experiment [4] (setting [8]), 99.88%.
On to `CCCCCCC(C)(C)c1cc(O)c2c(c1)OC(C)(C)[C@H]1CC=C(CO)C[C@H]21` [HU-211, Dexanabinol], for which the “% B/B0” value in experiment [1] (setting [5]) was determined as 103.36%; in experiment [2] (setting [6]), 93.37%; in experiment [3] (setting [7]), 92.70%; in experiment [4] (setting [8]), 96.78%.
Consider `CCCCCn1cc(C(=O)c2cccc3ccc(OC)cc23)c2ccccc21` [JWH-081 7-methoxynaphthyl isomer], for which the “% B/B0” value in experiment [1] (setting [5]) is given as 88.26%; in experiment [1] (Antibody to Immunogen I, cross-reactants at 100 ng/ml, 1000 ng/ml, standard JWH-018, listed as JWH-164) it was 91.86%; in experiment [2] (setting [6]) it was 39.20%; in experiment [2] (Antibody to Immunogen IV, cross-reactants at 100 ng/ml, 1000 ng/ml, standard JWH-018, listed as JWH-164), 36.14%; in experiment [3] (setting [7]), 59.51%; in experiment [3] (Antibody to Immunogen VIII, cross-reactants at 100 ng/ml, 1000 ng/ml, standard JWH-018, listed as JWH-164), 57.93%. For the same molecule, the “% B/B0” value in experiment [4] (setting [8]) is 97.60%; in experiment [4] (Antibody to Immunogen VII, cross-reactants at 100 ng/ml, 1000 ng/ml, standard JWH-015, listed as JWH-164), 96.13%.
In the case of `CCCCCn1cc(C(=O)c2ccc(CC)c3ccccc23)c2cc(O)ccc21` [JWH-210 5-hydroxyindole metabolite], the “% B/B0” value in experiment [1] (setting [5]) is given as 83.29%; in experiment [2] (setting [6]), 48.91%; in experiment [3] (setting [7]), 87.72%; in experiment [4] (setting [8]), 100.43%.
Consider `CCCCn1cc(C(=O)c2ccc(C)c3ccccc23)c2ccccc21` [JWH-073 4-methylnaphthyl analogue], for which the “% B/B0” value in experiment [1] (setting [5]) came out at 45.54%; in experiment [2] (setting [6]), 7.01%; in experiment [3] (setting [7]) it was 19.75%; in experiment [4] (setting [8]) it was 78.36%.
As to `CCCCCCCC(C)(C)c1ccc(C2CCCC(O)C2)c(O)c1` (stereo not shown) [CP-49,497-C8-homologue], the “% B/B0” value in experiment [1] (setting [5]) was 101.11%; in experiment [2] (setting [6]), 94.66%; in experiment [3] (setting [7]), 104.88%; in experiment [4] (setting [8]) it was 98.55%.
On to `O=C(c1ccc2ccccc2c1)c1cn(CCN2CCOCC2)c2ccccc12` [JWH-200 2′-naphthyl isomer], for which the “% B/B0” value in experiment [1] (setting [5]) stood at 28.57%; in experiment [2] (setting [6]) it was 92.29%; in experiment [3] (setting [7]) it was 96.12%; in experiment [4] (setting [8]), 94.65%.
With `CCCCCn1cc(C(=O)Cc2ccccc2Cl)c2ccccc21` [JWH-203], the “% B/B0” value is listed as 72.55% in experiment [1] (setting [5]), 52.15% in experiment [2] (setting [6]), 9.19% in experiment [3] (setting [7]) and 99.08% in experiment [4] (setting [8]).
In the case of `CCCC(C)(C)c1ccc2c(c1)OC(C)(C)[C@@H]1CC=C(C)C[C@@H]21` [JWH-133], the “% B/B0” value in experiment [1] (setting [5]) came to 100.56%; in experiment [2] (setting [6]), 98.18%; in experiment [3] (setting [7]), 100.00%; in experiment [4] (setting [8]), 101.84%.
In the case of `COc1ccccc1CC(=O)c1cn(CCCCCC(=O)O)c2ccccc12` [JWH 250 N-(5-carboxypentyl) metabolite], the “% B/B0” value in experiment [1] (setting [5]) worked out at 86.21%; in experiment [2] (setting [6]), 89.88%; in experiment [3] (setting [7]), 89.30%; in experiment [4] (setting [8]), 97.60%.
For `CCCCCCC(C)(C)c1cc(OC)c([C@@H]2C=C(CO)[C@@H]3C[C@H]2C3(C)C)c(OC)c1` [HU-308], the “% B/B0” value in experiment [1] (setting [5]) came to 101.35%; in experiment [2] (setting [6]) it was 94.03%; in experiment [3] (setting [7]), 89.77%; in experiment [4] (setting [8]) it was 95.95%.
`CCCCCn1cc(C(=O)c2ccc(OC)cc2)c2ccccc21` [RCS-4]: the “% B/B0” value in experiment [1] (setting [5]) came to 80.46%; in experiment [2] (setting [6]) it was 19.21%; in experiment [3] (setting [7]), 5.93%; in experiment [4] (setting [8]) it was 93.51%.
With `CCCCCn1ccc(C(=O)c2cccc3ccccc23)c1` [JWH-030], the “% B/B0” value in experiment [1] (setting [5]) stood at 61.17%; in experiment [2] (setting [6]) it was 93.17%; in experiment [3] (setting [7]) it was 94.25%; in experiment [4] (setting [8]), 89.66%.
On to `CCCCCn1cc(C(=O)c2c(CC)ccc3ccccc23)c2ccccc21` [JWH-210 2-ethylnaphthyl isomer], for which the “% B/B0” value is reported as 81.37% in experiment [1] (setting [5]), 53.97% in experiment [2] (setting [6]), 73.51% in experiment [3] (setting [7]) and 96.13% in experiment [4] (setting [8]).
Regarding `CCCCCn1cc(C(=O)Cc2ccccc2OC)c2cc(O)ccc21` [JWH 250 5-hydroxyindole metabolite], the “% B/B0” value was found to be 100.75% in experiment [1] (setting [5]), 84.05% in experiment [2] (setting [6]), 67.19% in experiment [3] (setting [7]) and 99.88% in experiment [4] (setting [8]).
Turning to `CCCCCCC(C)(C)c1ccc([C@@H]2C[C@H](O)CC[C@H]2CCCO)c(O)c1` (racemic) [(+−)-CP 55,940], the “% B/B0” value in experiment [1] (setting [5]) worked out at 100.61%; in experiment [2] (setting [6]), 94.60%; in experiment [3] (setting [7]), 100.25%; in experiment [4] (setting [8]), 100.25%.
`COc1ccc(C(=O)c2cn(CCCCCC(=O)O)c3ccccc23)cc1` [RCS-4 N-(5-carboxypentyl) metabolite]: the “% B/B0” value in experiment [1] (setting [5]) turned out to be 77.12%; in experiment [2] (setting [6]), 91.44%; in experiment [3] (setting [7]) it was 91.97%; in experiment [4] (setting [8]), 94.00%.
As to `CCCCCn1cc(C(=O)c2cccc(OC)c2)c2ccccc21` [RCS-4 3-methoxy isomer], the “% B/B0” value was found to be 31.19% in experiment [1] (setting [5]), 25.65% in experiment [2] (setting [6]), 10.95% in experiment [3] (setting [7]) and 94.72% in experiment [4] (setting [8]).
For `CCCCCn1cc(C(=O)Cc2cccc(Cl)c2)c2ccccc21` [JWH 203 3-chloro isomer], in that order: 95.59%, 55.09%, 10.34% and 97.42%.
Turning to `CCCCCn1cc(C(=O)Cc2ccc(OC)cc2)c2ccccc21` [JWH-201], the “% B/B0” value in experiment [1] (setting [5]) is 77.14%; in experiment [2] (setting [6]) it was 59.03%; in experiment [3] (setting [7]), 8.26%; in experiment [4] (setting [8]) it was 100.25%.
As for (−)-11-nor-9-Carboxy-delta9-THC, the “% B/B0” value stood at 100.47% in experiment [1], 93.08% in experiment [2], 103.36% in experiment [3] and 98.72% in experiment [4].
